Results: patent US7271165B2, “Rifamycin analogs and uses thereof” (priority 2003, dated 2007)
In brackets after ≈: the same amount, converted by molar mass.

Columns and labels:
E. faecalis = assay: MIC assay, E. faecalis; type: cell-based, Enterococcus faecalis
S. aureus = assay: MIC assay, S. aureus; type: cell-based, Staphylococcus aureus
S. pneumo. = assay: MIC assay, S. pneumo.; type: cell-based, Streptococcus pneumoniae
H. flu = type: cell-based, H. influenza; conditions: H. flu
E coli = assay: MIC assay, E coli; type: cell-based

SMILES | MIC (μg/mL) E. faecalis (E. faecalis) [µg/mL] | MIC (μg/mL) S. aureus (S. aureus) [µg/mL] | MIC (μg/mL) S. pneumo. (S. pneumo.) [µg/mL] | MIC (μg/mL) H. flu (H. flu) [µg/mL] | MIC (μg/mL) E coli (E coli) [µg/mL]
COC1C=COC2(C)Oc3c(C)c(O)c4c(=O)c(c5oc6cc(N7CCC(NC(=O)N8CCC(NC(=O)SC)CC8)CC7)cc(O)c6nc-5c4c3C2=O)NC(=O)C(C)=CC=CC(C)C(O)C(C)C(O)C(C)C(OC(C)=O)C1C (stereo not drawn) [Compound 49, 3′-hydroxy-5′-[4-(4-(S-methylthiocarbamyl)-1-piperidinylcarbonyl)amino-1-piperidinyl]benzoxazinorifamycin] | 8 (≈ 7.28 µM) | 0.06 (≈ 0.0546 µM) | 0.0005 (≈ 0.000455 µM) | 2 (≈ 1.82 µM) | >8
COC1C=COC2(C)Oc3c(C)c(O)c4c(=O)c(c5oc6cc(N7CCC(NC(=O)N8CCN(C)CC8)CC7)cc(O)c6nc-5c4c3C2=O)NC(=O)C(C)=CC=CC(C)C(O)C(C)C(O)C(C)C(OC(C)=O)C1C (stereo not drawn) [Compound 50, 3′-hydroxy-5′-[4-(4-methylpiperazinylcarbonyl)amino-1-piperidinyl]benzoxazinorifamycin] | 4 (≈ 3.9 µM) | 0.03 (≈ 0.0293 µM) | 0.00012 (≈ 0.000117 µM) | 0.5 (≈ 0.488 µM) | >8
CCOC(=O)NCC1CCN(c2cc(O)c3nc4c5c6c7c(C)c(O)c5c(=O)c(c-4oc3c2)NC(=O)C(C)=CC=CC(C)C(O)C(C)C(O)C(C)C(OC(C)=O)C(C)C(OC)C=COC(C)(O7)C6=O)CC1 (stereo not drawn) [Compound 51] | 8 (≈ 8.12 µM) | 0.06 (≈ 0.0609 µM) | 0.002 (≈ 0.00203 µM) | 0.25 (≈ 0.254 µM) | 8 (≈ 8.12 µM)
COC1C=COC2(C)Oc3c(C)c(O)c4c(=O)c(c5oc6cc(N7CCC(NC(=O)OC(C)(C)C)CC7)cc(O)c6nc-5c4c3C2=O)NC(=O)C(C)=CC=CC(C)C(O)C(C)C(O)C(C)C(O)C1C (stereo not drawn) [Compound 52, 25-O-deacetyl-3′-hydroxy-5′-[4-(2,2-dimethylethyl)carbamyl-1-piperidinyl]benzoxazinorifamycin] | 4 (≈ 4.18 µM) | 0.015 (≈ 0.0157 µM) | 0.00025 (≈ 0.000261 µM) | 0.12 (≈ 0.125 µM) | >8
COC1C=COC2(C)Oc3c(C)c(O)c4c(=O)c(c5oc6cc(N7CC8C(C7)C8N(C)C)cc(O)c6nc-5c4c3C2=O)NC(=O)C(C)=CC=CC(C)C(O)C(C)C(O)C(C)C(OC(C)=O)C1C [Compound 53, 3′-hydroxy-5′-[6-N,N-dimethylamino-(1R,5S)-3-azabicyclo[3.1.0]hex-3-yl]benzoxazinorifamycin] | 4 (≈ 4.32 µM) | 0.06 (≈ 0.0649 µM) | 0.008 (≈ 0.00865 µM) | 2 (≈ 2.16 µM) | >8
COC1C=COC2(C)Oc3c(C)c(O)c4c(=O)c(c5oc6cc(N7CC8C(C7)C8N(C)C)cc(O)c6nc-5c4c3C2=O)NC(=O)C(C)=CC=CC(C)C(O)C(C)C(O)C(C)C(O)C1C [Compound 54, 3′-hydroxy-5′-[6-N,N-dimethylamino-(1R,5S)-3-azabicyclo[3.1.0]hex-3-yl]benzoxazinorifamycin] | 2 (≈ 2.26 µM) | 0.008 (≈ 0.00906 µM) | 0.0005 (≈ 0.000566 µM) | 0.25 (≈ 0.283 µM) | >8
COC1C=COC2(C)Oc3c(C)c(O)c4c(=O)c(c5oc6cc(N7CCC(CNC(C)=O)CC7)cc(O)c6nc-5c4c3C2=O)NC(=O)C(C)=CC=CC(C)C(O)C(C)C(O)C(C)C(OC(C)=O)C1C (stereo not drawn) [Compound 55, 3′-hydroxy-5′-[4-acetylaminomethyl-1-piperidinyl]benzoxazinorifamycin] | 1 (≈ 1.05 µM) | 0.008 (≈ 0.00838 µM) | 0.00025 (≈ 0.000262 µM) | 0.5 (≈ 0.524 µM) | 8 (≈ 8.38 µM)
COC1C=COC2(C)Oc3c(C)c(O)c4c(=O)c(c5oc6cc(N7CCC(CNC(C)=O)CC7)cc(O)c6nc-5c4c3C2=O)NC(=O)C(C)=CC=CC(C)C(O)C(C)C(O)C(C)C(O)C1C (stereo not drawn) [Compound 56, 25-O-deacetyl-3′-hydroxy-5′-[4-acetylaminomethyl-1-piperidinyl]benzoxazinorifamycin] | 0.12 (≈ 0.131 µM) | 0.004 (≈ 0.00438 µM) | 0.001 (≈ 0.0011 µM) | 0.25 (≈ 0.274 µM) | 8 (≈ 8.76 µM)
COC1C=COC2(C)Oc3c(C)c(O)c4c(=O)c(c5oc6cc(N7CCC(c8ccccc8)CC7)cc(O)c6nc-5c4c3C2=O)NC(=O)C(C)=CC=CC(C)C(O)C(C)C(O)C(C)C(OC(C)=O)C1C (stereo not drawn) [Compound 57, 3′-hydroxy-5′-[4-phenyl-1-piperidinyl]benzoxazinorifamycin] | 2 (≈ 2.08 µM) | 0.008 (≈ 0.00833 µM) | 0.0005 (≈ 0.000521 µM) | 0.5 (≈ 0.521 µM) | 8 (≈ 8.33 µM)
